Data published in ChEMBL document CHEMBL4673352, “Discovery of AZD4573, a Potent and Selective Inhibitor of CDK9 That Enables Short Duration of Target Engagement for the Treatment of Hematological Malignancies” (J Med Chem, 2020).
In brackets after ≈: the same amount, converted by molar mass.

How the values were obtained:
[1] = Intrinsic clearance in rat cryopreserved hepatocytes assessed per million cells […]; format: ADME, cell-based, Hepatocyte; settings: cryopreserved hepatocytes, read-out: CLH
[2] = Solubility of compound in pH 4 0.1 M acetate buffer using crystalline form of sample; format: physicochemical
[3] = Half-life in Han Wistar rat at […], iv formulated as solution; format: ADME, organism-based; settings: in vivo, dose 1.3 µmol/kg
[4] = Volume of distribution at steady state in Han Wistar rat at […], iv formulated as solution; format: ADME, organism-based; settings: in vivo, dose 1.3 µmol/kg, read-out: Vdss
[5] = Volume of distribution at steady state in mouse at 5.2 umol/kg, iv formulated as solution; format: ADME, organism-based; settings: in vivo, dose 5.2 µmol/kg, read-out: Vdss
[6] = Solubility of compound in phosphate buffer at pH 7.4 using dried form of sample; format: physicochemical; settings: phosphate buffer, read-out: solubility
[7] = Intrinsic clearance in human liver microsome; format: ADME, microsomes; settings: liver microsomes, read-out: CLH
[8] = Clearance in mouse plasma at 5.2 umol/kg, iv formulated as solution; format: ADME, organism-based; settings: dose 5.2 µmol/kg
[9] = Clearance in Beagle dog plasma at 5.2 umol/kg, iv administered as 0.25 hrs infusion; format: ADME, organism-based, Canis lupus familiaris; settings: dose 5.2 µmol/kg
[10] = Intrinsic clearance in dog cryopreserved hepatocytes assessed per million cells […]; format: ADME, cell-based, Canis lupus familiaris, Hepatocyte; settings: read-out: CLH
[11] = Lipophilicity, log D of compound in buffer/octanol at pH 7.4 by shake flask method; format: physicochemical
[12] = Solubility of compound in pH 7.4 PBS buffer using crystalline form of sample; format: physicochemical
[13] = Intrinsic clearance in mouse cryopreserved hepatocytes assessed per million cells […]; format: ADME, cell-based, Hepatocyte; settings: read-out: CLH
[14] = Half-life in Beagle dog at 5.2 umol/kg, iv administered as 0.25 hrs infusion; format: ADME, organism-based, Canis lupus familiaris; settings: in vivo, dose 5.2 µmol/kg
[15] = Half-life in mouse at 5.2 umol/kg, iv formulated as solution; format: ADME, organism-based; settings: in vivo, dose 5.2 µmol/kg
[16] = Volume of distribution at steady state in Beagle dog at 5.2 umol/kg, iv administered as 0.25 hrs infusion; format: ADME, organism-based, Canis lupus familiaris; settings: in vivo, dose 5.2 µmol/kg, read-out: Vdss
[17] = Clearance in Han Wistar rat plasma at […], iv formulated as solution; format: ADME, organism-based; settings: dose 1.3 µmol/kg
[18] = Intrinsic clearance in human cryopreserved hepatocytes assessed per million cells […]; format: ADME, cell-based, Hepatocyte; settings: read-out: CLH

`COc1cc(F)ccc1-c1ccnc(NC(=O)[C@H]2CCC[C@@H](NC(C)=O)C2)c1` showed a hepatocyte CLint [1] of 58 µL/min/1e6 cells, a solubility thermodynamic [2] of 24 µM (≈ 9.25 µg/mL) and a half-life [3] of 13.2 min. It also gave a Vd [4] of 1.3 L/kg, a Vd [5] of 1.1 L/kg and a solubility [6] of 33 µM (≈ 12.7 µg/mL). It also gave a microsomal CLint [7] of 12 µL/min/mg, a clearance [8] of 40 mL/min/kg and a clearance [9] of 7.5 mL/min/kg. The hepatocyte CLint [10] was 5.9 µL/min/1e6 cells, the logD [11] was 3 and the solubility thermodynamic [12] was 7.5 µM (≈ 2.89 µg/mL). It also gave a hepatocyte CLint [13] of 52 µL/min/1e6 cells, a half-life [14] of 60 min and a half-life [15] of 15.6 min. The Vd [16] was 0.62 L/kg, the clearance [17] was 77 mL/min/kg and the hepatocyte CLint [18] was 1.4 µL/min/1e6 cells.
